According to patent US8722887B2, “Sulfonylpyrazole and sulfonylpyrazoline carboxamidine derivatives as 5-HT6 antagonists” (Abbvie Bahamas, Ltd., priority 2006, dated 2014):
Like-named read-outs stand apart in the source and are kept apart here.

Tests used:
5-HT6 receptor [1] = target: T1, 5-HT6 receptor (Homo sapiens, UniProt P50406); test: In vitro affinity for human 5-HT6 receptors, [3H]-LSD binding in CHO cell membranes; parameters: host or cells: CHO/Gα16/mtAEQ/h5HT6-A1 (CHO AequoScreen recombinant cell line); settings: [3H]-LSD 5.0 nM, membranes of CHO cells transfected with human 5-HT6; read-out: 5-HT6 pKi (converted)
T1 sequence (P50406 whole entry): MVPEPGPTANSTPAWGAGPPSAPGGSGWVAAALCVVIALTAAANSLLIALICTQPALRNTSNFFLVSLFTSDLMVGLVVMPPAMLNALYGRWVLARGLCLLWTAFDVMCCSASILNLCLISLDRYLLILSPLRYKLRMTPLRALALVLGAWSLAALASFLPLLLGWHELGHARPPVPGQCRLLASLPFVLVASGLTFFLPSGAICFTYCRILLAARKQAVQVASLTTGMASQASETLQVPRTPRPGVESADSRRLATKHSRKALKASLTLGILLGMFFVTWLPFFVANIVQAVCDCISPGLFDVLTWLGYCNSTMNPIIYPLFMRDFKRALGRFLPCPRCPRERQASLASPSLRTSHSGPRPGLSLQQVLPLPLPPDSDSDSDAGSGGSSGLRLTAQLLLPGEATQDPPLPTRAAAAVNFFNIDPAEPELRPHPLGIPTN

5-HT6 receptor [2] = target: T1, 5-HT6 receptor; test: In vitro functional activity (antagonism) on human 5-HT6 receptors, CHO-human-5HT6-Aequorin assay; type: cell-based; parameters: host or cells: CHO/Gα16/mtAEQ/h5HT6-A1 (CHO AequoScreen recombinant cell line)
[3] = Sleight, 1998; cited from earlier work
5-HT6 receptor [4] = target: T1, 5-HT6 receptor; settings: 5-HT6 receptor (Sleight, 1998); cited from earlier work
[5] = Rogers, 1999; cited from earlier work
[6] = antagonism of 10^-8 M α-methylserotonin induced luminescence, CHO-human-5HT6-Aequorin cells, read-out: 5-HT6 pA2 (converted)

Structure (SMILES) | melting point | other results
CNc1cc(NS(=O)(=O)c2ccc(N)cc2)nc(NC)n1 [Ro 04-6790] | – | pharmacokinetics [3]: poor; Ki (5-HT6 receptor [4]): 50 nM
CCC1C=NN(/C(N)=N/S(=O)(=O)c2ccc(C)cc2)C1 (centres unmarked) [compound 31] | 131 to 133 °C | –
CNc1cc(NS(=O)(=O)c2ccc(N)cc2)cc(NC)n1 [Ro 63-0563] | – | pharmacokinetics [3]: poor; Ki (5-HT6 receptor [4]): 12 nM
CCC1CN(/C(N)=N/S(=O)(=O)c2ccc(Cl)s2)N=C1C (centres unmarked) [compound 121] | 155 to 156 °C | –
CCC1C=NN(/C(=N/S(=O)(=O)c2ccccc2Cl)N2CCNCC2)C1 (centres unmarked) [compound 16] | 162 to 173 °C | Ki (5-HT6 receptor [1]): 200 nM
COc1ccc(NS(=O)(=O)c2sc3ccc(Cl)cc3c2C)cc1N1CCNCC1 [SB-271046] | – | performance in the Morris water maze [5]: improved performance
CCC1C=NN(/C(=N/S(=O)(=O)c2ccccc2Cl)N(C)C)C1 (centres unmarked) [compound 5] | 94 to 95 °C | –
CCC1C=NN(/C(N)=N/S(=O)(=O)c2ccccc2Cl)C1 (centres unmarked) [compound 3] | 161 to 163 °C | –
CCC1C=NN(/C(N)=N/S(=O)(=O)c2c(Cl)nc3sccn23)C1 (single isomer, unassigned; (-)) [(−)-123] | 176 to 178 °C | –
CCN/C(=N\S(=O)(=O)N(C)C)N1CC(CC)C=N1 (centres unmarked) [compound 171] | 60 to 61 °C | –
CCN/C(=N\S(=O)(=O)c1cccc(Cl)c1)N1N=CCC1c1ccccc1 (centres unmarked) [compound 143] | 124 to 126 °C | –
CCN/C(=N\S(=O)(=O)c1ccc(Cl)cc1)N1CC(CC)C=N1 (centres unmarked) | 84 to 86 °C | –
N/C(=N\S(=O)(=O)c1ccc(Cl)s1)N1CC2(C=N1)CCCC2 [compound 107] | 184 °C | –
CCN/C(=N\S(=O)(=O)c1ccccc1Cl)N1N=CCC1c1ccccc1 (centres unmarked) [compound 142] | 164 to 166 °C | Kb (5-HT6 receptor [2]): 50.1 nM
CCN/C(=N\S(=O)(=O)c1ccc(N)cc1)N1CC(CC)C=N1 (centres unmarked) [compound 134] | 122 to 125 °C | –
CCC1CN(/C(=N/S(=O)(=O)c2cccc(Cl)c2)NC)N=C1C (centres unmarked) [compound 109] | 155 to 156 °C | –
CCC1CN(/C(N)=N/S(=O)(=O)c2c(Cl)nc3sccn23)N=C1C (centres unmarked) [compound 130] | 139 to 140 °C | Ki (5-HT6 receptor [1]): 79.4 nM; Kb (5-HT6 receptor [2]; [6]): 6.31 nM

Second part, led by results:

melting point | Structure (SMILES) | other results
165 to 166 °C | CC1=NN(/C(N)=N/S(=O)(=O)c2cccc(Cl)c2)CC1c1ccccc1 (centres unmarked) [compound 141] | Ki (5-HT6 receptor [1]): 158 nM
146 to 147 °C | CCN/C(=N\S(=O)(=O)c1c(Cl)nc2sccn12)N1CC2(C=N1)CCCC2 [compound 133] | Ki (5-HT6 receptor [1]): 1.58 nM; Kb (5-HT6 receptor [2]; [6]): 0.158 nM
138 to 140 °C | CCN/C(=N\S(=O)(=O)c1ccccc1Cl)N1CCC(c2ccccc2)=N1 [compound 138] | Ki (5-HT6 receptor [1]): 631 nM
91 to 93 °C | CCN/C(=N\S(=O)(=O)c1ccccc1Cl)N1CCC(CC)=N1 | –
115 to 116 °C | CCC1C=NN(/C(N)=N/S(=O)(=O)c2ccc(Cl)s2)C1 (centres unmarked) [compound 105] | –
121 to 123 °C | CCC1CN(/C(N)=N/S(=O)(=O)c2cccc(Cl)c2)N=C1C (centres unmarked) [compound 113] | –
146 to 147 °C | CCC1C=NN(/C(N)=N/S(=O)(=O)c2c(Cl)nc3sccn23)C1 (single isomer, unassigned; (+)) [(+)123] | –
79 to 80 °C | CCN/C(=N\S(=O)(=O)c1cccc2ccccc12)N1CC(CC)C=N1 (centres unmarked) | –
179 to 184 °C | CN1CCN(/C(=N\S(=O)(=O)c2ccc(F)cc2)N2CCC(c3ccc(Cl)cc3)=N2)CC1 [compound 136] | –
135 to 137 °C | CC1=NN(/C(N)=N/S(=O)(=O)c2cccc(Cl)c2)CC1(C)C [compound 115] | –
188 to 189 °C | CN/C(=N\S(=O)(=O)c1ccc(F)cc1)N1CCC(c2ccc(Cl)cc2)=N1 | –
114 to 115 °C | CCC1C=NN(/C(N)=N/S(=O)(=O)c2ccc(Cl)cc2)C1 (centres unmarked) [compound 30] | Kb (5-HT6 receptor [2]; [6]): 1260 nM
162 to 164 °C | CC1(C)C=NN(/C(N)=N/S(=O)(=O)c2ccc(Cl)s2)C1 [compound 102] | –
43 to 45 °C | CCN/C(=N\S(=O)(=O)c1ccccc1)N1CC(CC)C=N1 (centres unmarked) [compound 24] | –
146 to 147 °C | N/C(=N\S(=O)(=O)c1cccc(Cl)c1)N1CC2(C=N1)CCCC2 [compound 97] | –
169 to 171 °C | CC1=NN(/C(N)=N/S(=O)(=O)c2c(Cl)nc3sccn23)CC1(C)C [compound 117] | –
